Among the data in patent US9695205B2, “Amide compounds for treatment of complement mediated disorders” (Achillion Pharmaceuticals, Inc., priority 2014, dated 2017) are IC50 values, retold here.

pIC50: −log10 of the molar value.

This assay concerns the target Human factor D (Homo sapiens (Human), UniProt P00746). Kind of assay: Human Factor D Assay. The settings on record: Human factor D 80 nM, substrate Z-L-Lys-SBzl and DTNB 100 μM each, pH 7.5. In kind it is biochemical. The method, then:
Example 14. Human Factor D Assay
Human factor D (purified from human serum, Complement Technology, Inc.) at 80 nM final concentration is incubated with test compound at various concentrations for 5 minutes at room temperature in 50 mM Tris, 1M NaCl, pH 7.5. A synthetic substrate Z-L-Lys-SBzl and DTNB (Ellman's reagent) are added to final concentrations of 100 μM each. The increase in color is recorded at OD405 nm in a microplate in kinetic mode over 30 minutes with 30 second time points in a spectrofluorimeter. IC50 values are calculated by non-linear regression from the percentage of inhibition of complement factor D activity as a function of test compound concentration.

Sequence of Human factor D (P00746 26-253): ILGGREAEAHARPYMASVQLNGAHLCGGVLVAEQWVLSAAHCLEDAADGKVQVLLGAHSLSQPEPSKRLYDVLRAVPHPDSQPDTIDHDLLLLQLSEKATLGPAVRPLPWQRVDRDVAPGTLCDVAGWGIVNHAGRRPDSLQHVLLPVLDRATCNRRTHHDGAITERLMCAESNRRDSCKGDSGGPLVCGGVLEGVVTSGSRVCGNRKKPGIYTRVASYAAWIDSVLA

For `CC(=O)c1cn(CC(=O)N2C[C@H](F)C[C@H]2C(=O)NCc2cccc(Cl)c2F)c2ccc(NC(=O)NCC(F)(F)F)cc12` [Compound 21, (2S,4R)-1-(2-(3-acetyl-5-(3-(2,2,2-trifluoroethyl)ureido)-1H-indol-1-yl)acetyl)-N-(3-chloro-2-fluorobenzyl)-4-fluoropyrrolidine-2-carboxamide], the pIC50 – broadly, the negative decadic logarithm of the IC50, by convention in mol/L – is above 6.00. The same measure for `CC(=O)c1cn(CC(=O)N2C[C@H](F)C[C@H]2C(=O)Nc2cccc(C(F)(F)F)n2)c2ccc(NC(=O)N3CCCC(F)(F)C3)cc12` [Compound 20, N-(3-acetyl-1-(2-((2S,4R)-4-fluoro-2-(6-(trifluoromethyl)pyridin-2-ylcarbamoyl)pyrrolidin-1-yl)-2-oxoethyl)-1H-indol-5-yl)-3,3-difluoropiperidine-1-carboxamide]: above 6.00. As for `CC(=O)c1cn(CC(=O)N2C[C@H](F)C[C@H]2C(=O)NCc2cccc(Cl)c2F)c2ccc(NC(=O)NCc3nn[nH]n3)cc12` [Compound 2, (2S,4R)-1-(2-(5-(3-((2H-tetrazol-5-yl)methyl)ureido)-3-acetyl-1H-indo-1-yl)acetyl)-N-(3-chloro-2-fluorobenzyl)-4-fluoropyrrolidine-2-carboxamide], the pIC50 is above 6.00.
